Test system: bifidobacteria (B. adolescentis and B. longum)
Assay: Fecal fermentations simulating the distal colon of elderly (microMatrix, shotgun metagenomics)
Type: cell-based, human (pool of fecal material of healthy 70+ human subjects)
Conditions: oligosaccharides at 0.5 wt % final concentration, 7 hours of fermentation, pH 6.8, 37° C., compared to the blanc; FIG. 1
Description: Fecal fermentations were performed in a 24 well plate using the microMatrix™ (Applikon Biotechnology) as described in M. M. O'Donnell et al., Front. Microbiol., vol. 9, Aug. 10, 2018, article 1844. The wells were filled in the anaerobic chamber with medium (composition: see Table 1) to which the oligosaccharides GOS (Biotis™ GOS ex-FrieslandCampina), 2′-FL (Aequival™ 2′-FL, ex-FrieslandCampina), or mixtures thereof were added at a final concentration of 0 (blanc) or 0.5 wt % (every condition in duplicate). The plate was put in the microMatrix™ for about 20 minutes to reduce the dissolved oxygen concentration to below 5% and to increase the temperature of the medium to 37° C. After these 20 minutes, the plate was inoculated with a pool of fecal material of healthy 70+ human subjects and fermentations were started. During the fermentations, the pH of was controlled at pH 6.8 with a dead zone of 0.1 using ammonium gas and CO2. The plates were orbitally shaken at 300 rpm. Mixed gas (CO2/H2/N2: 10/5/85) was used to keep the cultures anaerobic during fermentation. After 7 hours of fermentation a sample of 1 ml was taken. Fecal samples of eight healthy elderly were included in the pool. […]

2′-fucosyllactose [2′-FL]
relative abundance of B. adolescentis and B. longum and their combined amount, relative to total bacteria content: increased

Source: patent US20240197762A1, “NUTRITIONAL COMPOSITION FOR STIMULATIONG BIFIDOBACTERIA” (FrieslandCampina Nederland B.V., priority 2021, published 2024)
